# In patent US8785211B2 (priority 2005, dated 2014):
# Biological target: wild type α-HL single channel (Staphylococcus aureus, UniProt P09616)
# Type: binding
# wild type α-HL single channel, sequence (P09616 27-319 limits assumed): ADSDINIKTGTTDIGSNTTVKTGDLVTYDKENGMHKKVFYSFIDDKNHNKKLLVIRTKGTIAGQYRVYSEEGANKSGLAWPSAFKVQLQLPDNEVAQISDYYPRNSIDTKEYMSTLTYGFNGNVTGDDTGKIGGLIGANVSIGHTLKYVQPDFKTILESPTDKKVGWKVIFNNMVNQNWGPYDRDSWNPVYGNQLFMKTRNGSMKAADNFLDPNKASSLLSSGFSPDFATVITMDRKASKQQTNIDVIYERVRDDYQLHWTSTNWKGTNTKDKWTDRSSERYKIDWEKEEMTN
substance,measurement,value
heptakis-6-amino-β-cyclodextrin [am7-βCD],Cyclodextrin binding to wild type pore,led to cyclodextrin binding events
